Data on seven molecules can be found in patent US10751324B2, “Treatment of TNF- alpha cytotoxicity” (The University of Chicago, priority 2016, dated 2020).

The subject of one data set is WT fibroblasts. The data set is described as follows: TNFα-induced apoptosis in fibroblasts pre-treated with actin stress fiber modulators, Annexin V/PI flow cytometry. The following applies: for cytotoxic dose TNFα-induced apoptosis: pre-treated 1 hour (30 nM Jasplakinolide or 5 μM S1P), then 80 ng/ml TNFα, FIG. 10B, 10D; for apoptosis with non-cytotoxic dose TNFα: pre-treated 1 hour (1 μg/ml Cytochalasin D or 2.5 μg/ml Latrunculin B), 5 ng/ml TNFα 12 hours, FIG. 10F, 10H. In kind it is cell-based, mouse. As to the method:
Annexin V and propidium iodide (PI) staining was performed with FITC Annexin V apoptosis Detection kit (BD Pharmingen). Apoptotic cells were analyzed by FACS canto flow cytometer (BD Biosciences).
(§1) WT and Bad-deficient fibroblasts were pre-treated with 30 nM Jasplakinolide (FIG. 10A and FIG. 10B), 5 μM Sphingosine-1-phosphate (S1P) (FIG. 10C and FIG. 10D) or DMSO (control) for 1 hour, followed by stimulation with or without 80 ng/ml TNFα for various times, as indicated. Cell extracts were separated into cytosol and mitochondrial fractions. Subcellular localizations of BAD and IKK-phosphorylated BAD were determined. ß-actin, BCL-xL, and COX-2 were used as control (FIG. 10A and FIG. 10C). Apoptotic cells were identified by Annexin V and PI staining, followed by flow cytometric analysis. Data are as means±s.d. **, P<0.01, as analyzed by two-tailed Student's t test (FIG. 10B and FIG. 10D).
(§2) WT and Bad-deficient fibroblasts were pretreated with 1 μg/ml Cytochalasin D (FIG. 10E and FIG. 10F), 2.5 μg/ml Latrunculin B (FIG. 10G and FIG. 10H), or DMSO (control) for 1 hours, followed by stimulation with or without 5 ng/ml or 80 ng/ml TNFα for 4 hours (FIG. 10E and FIG. 10G) or 12 hours (FIG. 10F and FIG. 10H). Cell extracts were separated into cytosol and mitochondrial fractions. Subcellular localizations of BAD and IKK phosphorylated BAD were determined. ß-actin, BCL-xL, and COX-2 were used as control (FIG. 10E and FIG. 10G). Apoptotic cells were identified by Annexin V and PI staining, followed by flow cytometric analysis. Data are means±s.d. and represent three individual experiments. **, P<0.01, as analyzed by two-tailed Student's t test (FIG. 10B, FIG. 10D, FIG. 10F, and FIG. 10H).
A general note: Flow cytometry measures light scatter and fluorescence of single cells or particles in a stream.

Data set [1] relates to BAD. The data set is described as follows: TNFα-induced BAD mitochondrial translocation in fibroblasts pre-treated with actin stress fiber modulators. In kind it is cell-based, mouse. The following applies: for cytotoxic dose TNFα-induced BAD mitochondrial translocation: pre-treated 1 hour (30 nM Jasplakinolide or 5 μM S1P), then 80 ng/ml TNFα, FIG. 10A, 10C; for BAD mitochondrial translocation with non-cytotoxic dose TNFα: pre-treated 1 hour (1 μg/ml Cytochalasin D or 2.5 μg/ml Latrunculin B), 5 ng/ml TNFα 4 hours, FIG. 10E, 10G. The procedure:
Immunoprecipitation was performed as previously described (12). Caspase 3 assay was performed with Casp-3 cellular activity assay kit using Casp-3 substrate Ac-DEVD-pNA (Calbiochem). Active RhoA, active Src, and active Cdc42 assays were performed with G-LISA assay biochemical kit (Cytoskeleton, Inc.). Active GEF-H1 assay was performed by using GST-RhoA(G17A) to pull down the active GEF-H1 from cell extracts and analyzed by immunoblotting. Cytosol and mitochondria fractionations were prepared by the cytosol/mitochondria fractionation kit (Biovision), according to the manufacturer protocol. Cytoskeleton precipitation and G-actin/F-actin assay were performed by the G-actin/F-actin in vivo assay biochem kit (Cytoskeleton, Inc.)
as §1, §2

Data set [2] relates to wild type mice subjected to CLP surgery. In words: Polymicrobial infection model (cecal ligation and puncture, CLP), mortality rate. The following applies: 2.5 mg/kg i.p. 6 hours before CLP and each 12 hours after surgery; n=10, p<0.01; FIG. 20B. In kind it is in vivo, mouse. As to the method:
Wild type C57B6/J6 mice were maintained in a specific pathogen-free facility and housed on a 12:12-hour light/dark photoperiod at an ambient temperature of 22° C.±2° C. All animal experiments were conducted in accordance with the protocols approved by the Institutional Animal Care and Use Committee of the University of Chicago. 6-8 week old male mice were used for all of the experiments. The bacterial infusion model was performed by intraperitoneal (i.p.) injection of E. coli (ATCC 25922; 3×10^7 CFU). For the polymicrobial infection model, the CLP procedure was performed. The severity of CLP was adjusted to a high-grade sepsis. For the mock CLP procedure (Sham), mice underwent the same abdominal surgery as CLP procedure, except were not subject to the cecal ligation and puncture. Inhibitor treatments were performed using i.p. injection of the compound at a dose of 2.5 mg/kg body weight. Same amount of DMSO were i.p. injected as a control. […] Mortality rates were recorded for up to 120 hours for the CLP model and 50-60 hours for the E. coli model after the treatment and dying mice were pre-moved. […]
In these experiments, wild type mice were i.p injected with or without saracatinib (2.5 mg/kg body weight) for 6 hours, then challenged with E. coli (5×10^7CFU, i.p. injection). […] Mortality rate was determined (FIG. 20A); n=6, p<0.01. […] Mortality rate was determined (FIG. 20B); n=10, p<0.01.

The target of a further data set is T1, IKKß (Mus musculus, UniProt O88351).
T1 construct: Total cell lysate was prepared for western blotting analysis; endogenous in cells; host or cells: mouse embryonic fibroblasts (MEFs)
T1 sequence (O88351 1-757): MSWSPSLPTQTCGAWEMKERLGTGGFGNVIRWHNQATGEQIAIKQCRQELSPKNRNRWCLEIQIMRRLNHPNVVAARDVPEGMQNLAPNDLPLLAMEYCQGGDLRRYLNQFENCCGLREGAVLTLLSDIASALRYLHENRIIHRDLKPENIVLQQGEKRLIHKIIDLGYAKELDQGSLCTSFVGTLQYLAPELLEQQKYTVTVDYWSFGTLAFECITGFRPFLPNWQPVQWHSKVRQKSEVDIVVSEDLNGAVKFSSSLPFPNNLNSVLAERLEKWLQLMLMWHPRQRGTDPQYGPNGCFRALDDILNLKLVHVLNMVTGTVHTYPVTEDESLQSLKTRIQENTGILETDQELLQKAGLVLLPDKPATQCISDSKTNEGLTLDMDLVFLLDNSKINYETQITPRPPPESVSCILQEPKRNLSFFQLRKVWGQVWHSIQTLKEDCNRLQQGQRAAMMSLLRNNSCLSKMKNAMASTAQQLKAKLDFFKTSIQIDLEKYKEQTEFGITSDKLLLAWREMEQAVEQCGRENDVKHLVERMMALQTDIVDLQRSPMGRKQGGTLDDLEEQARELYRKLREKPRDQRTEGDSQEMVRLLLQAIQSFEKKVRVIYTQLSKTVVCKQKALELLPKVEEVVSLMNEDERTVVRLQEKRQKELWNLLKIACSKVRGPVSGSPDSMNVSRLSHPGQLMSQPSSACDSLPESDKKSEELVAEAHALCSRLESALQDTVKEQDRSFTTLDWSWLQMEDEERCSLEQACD
In words: IKKß phosphorylation by immunoblotting in TNFα-treated MEFs ("in vitro kinase assay"). The following applies: MEFs pre-treated with different doses for 1 hour, then cytotoxic TNFα 15 min; immunoblot, FIG. 17. In kind it is cell-based. In general terms: In western blotting, separated proteins are transferred to a membrane and probed.

Data set [3] deals with BAD. The data set is described as follows: Cytotoxic dose TNFα-induced BAD translocation to mitochondria, cell fractionation and immunoblotting in MEFs. The following applies: MEFs pre-treated with different doses 1 hour, cytotoxic TNFα 4 hours; FIG. 19B.

Turning to `C/C1=C\[C@H](C)C[C@H](C)OC(=O)C[C@H](c2ccc(O)cc2)NC(=O)[C@@H](Cc2c(Br)[nH]c3ccccc23)N(C)C(=O)[C@H](C)NC(=O)[C@@H](C)C1` [Jasplakinolide], in the data set on WT fibroblasts, the “cytotoxic dose TNFα-induced apoptosis” value was “significantly reduced”. The “cytotoxic dose TNFα-induced BAD mitochondrial translocation” value in the data set with BAD [1] was “significantly reduced”. On to `[2H]C([2H])([2H])N1CCN(CCOc2cc(OC3CCOCC3)c3c(Nc4c(Cl)ccc5c4OCO5)ncnc3c2)CC1` [ZG5129], for which the “polymicrobial infection-induced severe sepsis (mortality rate)” value in data set [2] is on record as “inhibit”.

As to `C=C1[C@@H](C)[C@H]2[C@H](Cc3ccccc3)NC(=O)[C@]23[C@H](OC(C)=O)/C=C/[C@@](C)(O)C(=O)[C@@H](C)C/C=C/[C@H]3[C@@H]1O` [cytochalasin D, Cytochalasin D], the “apoptosis with non-cytotoxic dose TNFα” value in the data set with WT fibroblasts is reported as “induced”. In the data set with BAD [1], the “BAD mitochondrial translocation with non-cytotoxic dose TNFα” value is reported as “induced”.

For `Cc1nc(Nc2ncc(C(=O)Nc3c(C)cccc3Cl)s2)cc(N2CCN(CCO)CC2)n1.O` [dasatinib, N-(2-chloro-6-methylphenyl)-2-[[6-[4-(2-hydroxyethyl)-1-piperazinyl]-2-methyl-4-pyrimidinyl]amino]-5-thiazole carboxamide monohydrate], the IKK phosphorylation result at IKKß was “do not inhibit”. Also, the “cytotoxic dose TNFα-induced BAD translocation to mitochondria” value in the data set with BAD [3] is on record as “inhibit”. For the molecule `C/C1=C/C(=O)O[C@@H]2C[C@@H](CC[C@H](C)/C=C\CC1)O[C@@](O)([C@@H]1CSC(=O)N1)C2` [latrunculin B, Latrunculin B], the “apoptosis with non-cytotoxic dose TNFα” value in the data set on WT fibroblasts is recorded as “induced”. Further, in the data set with BAD [1], the “BAD mitochondrial translocation with non-cytotoxic dose TNFα” value is on record as “induced”. In the case of `CN1CCN(CCOc2cc(OC3CCOCC3)c3c(Nc4c(Cl)ccc5c4OCO5)ncnc3c2)CC1` [saracatinib], the “cytotoxic dose TNFα-induced BAD translocation to mitochondria” value in the data set with BAD [3] is “inhibit”.

Take `CCCCCCCCCCCCC/C=C/[C@@H](O)[C@@H](N)COP(=O)(O)O` [sphingosine-1-phosphate, Sphingosine-1-phosphate]: in the data set with WT fibroblasts, the “cytotoxic dose TNFα-induced apoptosis” value is reported as “significantly reduced”. In addition, in the data set on BAD [1], the “cytotoxic dose TNFα-induced BAD mitochondrial translocation” value is given as “significantly reduced”.
